Assay [1] deals with T1, rat PrRP receptor (GPR10) in RC-4B/C cells (Rattus norvegicus, UniProt Q64121).
T1 construct: host or cells: RC-4B/C rat pituitary cell line
T1 sequence (Q64121 1-370): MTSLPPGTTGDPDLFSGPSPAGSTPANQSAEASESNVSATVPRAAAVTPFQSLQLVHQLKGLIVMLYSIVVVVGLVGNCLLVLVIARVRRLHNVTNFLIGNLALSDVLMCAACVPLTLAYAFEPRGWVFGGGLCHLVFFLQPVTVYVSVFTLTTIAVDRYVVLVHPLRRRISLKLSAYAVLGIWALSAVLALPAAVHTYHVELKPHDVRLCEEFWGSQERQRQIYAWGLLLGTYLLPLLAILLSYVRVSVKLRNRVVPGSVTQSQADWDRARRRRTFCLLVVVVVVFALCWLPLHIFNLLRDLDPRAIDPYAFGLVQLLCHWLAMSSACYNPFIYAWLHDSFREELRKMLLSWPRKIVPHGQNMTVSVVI
Briefly: Competitive binding to rat pituitary RC-4B/C cells. Particulars: ^125I-rat PrRP31, RC-4B/C cells. As for the experimental part: Competitive binding experiments were performed according to Motulsky and Neubig (Motulsky, A., et al., “Analyzing radioligand binding data,” Curr Protoc Neurosci, Chapter 7, Unit 7.5, 2002). The rat pituitary cell line RC-4B/C (ATCC, Manassas, USA) was grown on 24-well plates which had their bottom coated with polyethyleneimine. The cells were grown to the optimal density of 300-450 thousand per well. […] Plates were incubated for 60 minutes at room temperature. After incubation, the cells were solubilized in 0.1 mol/l solution of NaOH and the radioactivity bound to the cells was counted using a γ-counter. The experiments were performed in duplicate and repeated at least three times. For evaluation of competitive binding experiments, the program Graph Pad Prism Software (San Diego, Calif., USA) was used. A method of nonlinear regression assuming one-site binding was used.

For assay [2], the system named is MAPK/ERK1/2 signaling pathway in RC-4B/C cells. Briefly: MAPK/ERK1/2 signaling in RC-4B/C cells (Western blot). It counts as cell-based, rat. The following applies: 10^−6 mol·l^−1, 5 minute incubation. Here is the method: RC-4B/C cells, which were used to determine if lipidated PrRP20 analogs are able to initiate the MAPK/ERK1/2 signaling pathway, were grown in 6-well plates up to the optimal density of […]. Seventeen hours before sample harvest, the growth medium was replaced by a serum-free medium lacking epidermal growth factor (EGF). The respective lipidated PrRP analog was added to each well in the final concentration of 10^−6 mol·l^−1. After a 5 minute incubation at 37° C., the plate was placed on ice and each well was rinsed three times with PBS pH 7.4 (137 mmol·l^−1 NaCl, 2.7 mmol·l^−1 KCl, 8 mmol·l^−1 Na2HPO4.2H2O a 1.76 mmol·l^−1 KH2PO4) and cooled to 4° C. […] Samples were collected in at least three independent experiments.
To determine if the lipidated PrRP20 analogs initiated the MAPK/ERK1/2 signaling pathway, Western blot analysis was used. Electrophoresis was performed on 5%/12% polyacrylamide gel in the presence of SDS (SDS-PAGE) on the instrument MiniProtean 3 (BioRad, Herkules, Calif., USA). Samples that were loaded on the gel were first disintegrated by ultrasound, then heated at 100° C. for 2 minutes, and centrifuged for 5 minutes at 500×g at room temperature. […] Electrophoresis was performed at a constant voltage of 100 V for 10 minutes, or for 60 minutes at 150 V.
To show the presence of phosphorylated proteins in the samples, the proteins from the SDS-PAGE gel were transferred to the Immobilon™-P PVDF (polyvinylidene difluoride) membrane (Sigma-Aldrich, USA). The transfer was performed in blotting buffer at pH 8.3 (25 mmol·l^−1 Tris, 192 mmol·l^−1 glycine and 20% methanol) for 20 hours at 4° C. at a constant voltage of 30 V.
After the protein transfer to the PVDF membrane, the membranes were washed for 5 minutes in TBS washing buffer (20 mmol·l^−1 Tris, 140 mmol·l^−1 NaCl and 0.1% Tween-20) and then incubated for 1 hour in blocking buffer (TBS with 5% non-fat milk powder and 5 mmol·l^−1 Na3VO4 and 50 mmol·l^−1 NaF) at room temperature. Further, the membranes were washed three times for 5 minutes using the TBS washing buffer. The membranes were then incubated with the primary antibody against phospho-p44/42 MAPK(Thr202/Tyr204) (Cell Signaling Technology, Beverly, USA) which was diluted in blocking buffer at 1:1000. After the next three washes with the TBS washing buffer for 5 minutes, the membranes were incubated for 1 hour with rabbit secondary antibody labeled with peroxidase (Sigma, St. Louis, USA) which was diluted in blocking buffer at 1:12,000.
The membranes were then washed three times in TBS washing buffer for 5 minutes and then the solution Femto (Pierce SuperSignal, Thermo Fisher Scientific, Rockford, Ill., USA) was applied. The induced chemiluminiscence was detected by a CCD camera (LAS 3000, Fuji Photo Film GmBH, Düsseldorf, Germany).
To assess the initiation of signaling pathways, a densitometric analysis using the program Quantity One (BioRad, Hercules, Calif., USA) was used. For statistical evaluation of the statistically significant response of the cellular signaling, one-way ANOVA with subsequent Dunnett post-hoc test was used. Data was statistically significant at P<0.05.
In general terms: Immunoblotting shows a protein as a band on a membrane.

The subject of the next assay is fasted C57BL/6 mice. The assay can be described thus: Food intake in fasted mice after SC administration. Particulars: SC administration, 5 mg/kg; for % control: food intake vs saline. Type of assay: in vivo, mouse. Put shortly: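 Male C57BL/6 mice, food-deprived 17 h, received saline, PrRP or lipidated analogs either SC at 1-10 mg/kg or ICV into the third ventricle at 4 nmol/mouse.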

Assay [3] deals with T2, rat PrRP receptor in RC-4B/C cells (rat, UniProt Q64121 1-370).
T2 construct: whole, on cells; also called the rat receptor; GPR10
T2 sequence (looked up): T1 sequence (Q64121 1-370)
Briefly: competition with 125I-rat PrRP31 on RC-4B/C cells. Here is the method: (§1) The rat pituitary cell line RC-4B/C (ATCC, Manassas, USA) was grown on 24-well plates which had their bottom coated with polyethyleneimine. The cells were grown to the optimal density of 300-450 thousand per well.
(§2) Plates were incubated for 60 minutes at room temperature. After incubation, the cells were solubilized in 0.1 mol/l solution of NaOH and the radioactivity bound to the cells was counted using a γ-counter. The experiments were performed in duplicate and repeated at least three times.

The target in assay [4] is T2, rat PrRP receptor in RC-4B/C cells. The assay can be described thus: competition with 125I-rat PrRP31 on RC-4B/C cells; Ki by Cheng-Prusoff. As for the experimental part:
as §1, §2
For evaluation of competitive binding experiments, the program Graph Pad Prism Software (San Diego, Calif., USA) was used. A method of nonlinear regression assuming one-site binding was used.

Where a SMILES comes first, the peptide text is derived from it. Where no end group is shown, it is not given here. [ ]: non-standard residue; d: D form. The star is where a group is joined. Lauroyl = CCCCCCCCCCCC(=O)*; Nle = CCCC[C@H](N)C(=O)O; Octanoyl = CCCCCCCC(=O)*; Dap = NC[C@H](N)C(=O)O

In the case of `CCCCCCCCCCCC(=O)NC[C@H](N)C(=O)N[C@@H](CCCNC(=N)N)C(=O)N[C@@H](C)C(=O)N[C@@H](Cc1c[nH]cn1)C(=O)N[C@@H](CCC(N)=O)C(=O)N[C@@H](Cc1c[nH]cn1)C(=O)N[C@@H](CO)C(=O)N[C@@H](CCCC)C(=O)N[C@@H](CCC(=O)O)C(=O)N[C@H](C(=O)N[C@@H](CCCNC(=N)N)C(=O)N[C@H](C(=O)N1CCC[C@H]1C(=O)N[C@@H](CC(=O)O)C(=O)N[C@H](C(=O)N[C@@H](CC(N)=O)C(=O)N1CCC[C@H]1C(=O)N[C@@H](C)C(=O)N[C@@H](Cc1c[nH]c2ccccc12)C(=O)N[C@@H](Cc1ccc(O)cc1)C(=O)N[C@H](C(=O)NCC(=O)N[C@@H](CCCNC(=N)N)C(=O)NCC(=O)N[C@H](C(=O)N[C@@H](CCCNC(=N)N)C(=O)N1CCC[C@H]1C(=O)N[C@H](C(=O)NCC(=O)N[C@@H](CCCNC(=N)N)C(=O)N[C@@H](Cc1ccccc1)C(N)=O)C(C)C)[C@@H](C)CC)[C@@H](C)O)[C@@H](C)CC)[C@@H](C)O)[C@@H](C)O` [Analog 3] (H-[Dap](Lauroyl)RAHQHS[Nle]ETRTPDINPAWYTGRGIRPVGRF-NH2), in assay [1], the “% of PrRP31 binding” value came to 440%. For the same molecule, the ERK signaling result in assay [2] is on record as “agonist”. For the same molecule, the “food intake” value with fasted C57BL/6 mice (45 minutes) was 0.12 g; in the assay on fasted C57BL/6 mice (300 minutes), 0.61 g. Also, the results for the “% control” value in the assay on fasted C57BL/6 mice (45 minutes) and in the assay on fasted C57BL/6 mice (300 minutes) were 50% and 60%, respectively.

In the case of `CCCCCCCC(=O)NC[C@H](N)C(=O)N[C@@H](CCCNC(=N)N)C(=O)N[C@@H](C)C(=O)N[C@@H](Cc1c[nH]cn1)C(=O)N[C@@H](CCC(N)=O)C(=O)N[C@@H](Cc1c[nH]cn1)C(=O)N[C@@H](CO)C(=O)N[C@@H](CCCC)C(=O)N[C@@H](CCC(=O)O)C(=O)N[C@H](C(=O)N[C@@H](CCCNC(=N)N)C(=O)N[C@H](C(=O)N1CCC[C@H]1C(=O)N[C@@H](CC(=O)O)C(=O)N[C@H](C(=O)N[C@@H](CC(N)=O)C(=O)N1CCC[C@H]1C(=O)N[C@@H](C)C(=O)N[C@@H](Cc1c[nH]c2ccccc12)C(=O)N[C@@H](Cc1ccc(O)cc1)C(=O)N[C@H](C(=O)NCC(=O)N[C@@H](CCCNC(=N)N)C(=O)NCC(=O)N[C@H](C(=O)N[C@@H](CCCNC(=N)N)C(=O)N1CCC[C@H]1C(=O)N[C@H](C(=O)NCC(=O)N[C@@H](CCCNC(=N)N)C(=O)N[C@@H](Cc1ccccc1)C(N)=O)C(C)C)[C@@H](C)CC)[C@@H](C)O)[C@@H](C)CC)[C@@H](C)O)[C@@H](C)O` [Analog 2] (H-[Dap](Octanoyl)RAHQHS[Nle]ETRTPDINPAWYTGRGIRPVGRF-NH2), the “% of PrRP31 binding” value in assay [1] is given as 172%. Further, in assay [2], the ERK signaling result is listed as “agonist”.

B1: analog no. 2 (peptide)
peptide: [Dap](Octanoyl)RAHQHS[Nle]ETRTPDINPAWYTGRGIRPVGRF-NH2
modifications: N-terminus assumed
SMILES: CCCCCCCC(=O)NC[C@H](N)C(=O)N[C@@H](CCCNC(=N)N)C(=O)N[C@@H](C)C(=O)N[C@@H](Cc1c[nH]cn1)C(=O)N[C@@H](CCC(N)=O)C(=O)N[C@@H](Cc1c[nH]cn1)C(=O)N[C@@H](CO)C(=O)N[C@@H](CCCC)C(=O)N[C@@H](CCC(=O)O)C(=O)N[C@H](C(=O)N[C@@H](CCCNC(=N)N)C(=O)N[C@H](C(=O)N1CCC[C@H]1C(=O)N[C@@H](CC(=O)O)C(=O)N[C@H](C(=O)N[C@@H](CC(N)=O)C(=O)N1CCC[C@H]1C(=O)N[C@@H](C)C(=O)N[C@@H](Cc1c[nH]c2ccccc12)C(=O)N[C@@H](Cc1ccc(O)cc1)C(=O)N[C@H](C(=O)NCC(=O)N[C@@H](CCCNC(=N)N)C(=O)NCC(=O)N[C@H](C(=O)N[C@@H](CCCNC(=N)N)C(=O)N1CCC[C@H]1C(=O)N[C@H](C(=O)NCC(=O)N[C@@H](CCCNC(=N)N)C(=O)N[C@@H](Cc1ccccc1)C(N)=O)C(C)C)[C@@H](C)CC)[C@@H](C)O)[C@@H](C)CC)[C@@H](C)O)[C@@H](C)O
notes: analog of rat PrRP31; also called [Dpr(oct)^1]PrRP31
The term Ki denotes a dissociation constant, usually derived from enzyme kinetics or from competition with a known ligand. Read a high Ki as a looser hold on the target. As to B1, in assay [3], the “% of PrRP31 binding” value is 172%. In addition, the affinity in assay [4], expressed as Ki, was 2.86 nM.

B2: analog no. 3 (peptide)
peptide: [Dap](Lauroyl)RAHQHS[Nle]ETRTPDINPAWYTGRGIRPVGRF-NH2
modifications: N-terminus assumed
SMILES: CCCCCCCCCCCC(=O)NC[C@H](N)C(=O)N[C@@H](CCCNC(=N)N)C(=O)N[C@@H](C)C(=O)N[C@@H](Cc1c[nH]cn1)C(=O)N[C@@H](CCC(N)=O)C(=O)N[C@@H](Cc1c[nH]cn1)C(=O)N[C@@H](CO)C(=O)N[C@@H](CCCC)C(=O)N[C@@H](CCC(=O)O)C(=O)N[C@H](C(=O)N[C@@H](CCCNC(=N)N)C(=O)N[C@H](C(=O)N1CCC[C@H]1C(=O)N[C@@H](CC(=O)O)C(=O)N[C@H](C(=O)N[C@@H](CC(N)=O)C(=O)N1CCC[C@H]1C(=O)N[C@@H](C)C(=O)N[C@@H](Cc1c[nH]c2ccccc12)C(=O)N[C@@H](Cc1ccc(O)cc1)C(=O)N[C@H](C(=O)NCC(=O)N[C@@H](CCCNC(=N)N)C(=O)NCC(=O)N[C@H](C(=O)N[C@@H](CCCNC(=N)N)C(=O)N1CCC[C@H]1C(=O)N[C@H](C(=O)NCC(=O)N[C@@H](CCCNC(=N)N)C(=O)N[C@@H](Cc1ccccc1)C(N)=O)C(C)C)[C@@H](C)CC)[C@@H](C)O)[C@@H](C)CC)[C@@H](C)O)[C@@H](C)O
notes: analog of rat PrRP31
As for B2, the “% of PrRP31 binding” value in assay [3] is 440%. In assay [4], this molecule came in with a Ki of 1.12 nM.
